We go through six molecules from PubChem BioAssay (NCI).

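Interpolation was linear, between the two tested concentrations surrounding the appropriate level; five concentrations were tested over 48 hours in 96-well plates. GI50 marks 50% less growth. TGI is the concentration that stops growth completely.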

Assay in all cases: NCI anticancer screen, dose series, 48 h
Test [1] has as its system SF-539 CNS.
In test [2] the test system is SR leukemia.
The test system of test [3] is RXF 393 renal.
Test [4] concerns UACC-257 melanoma.
For test [5], the system named is NCI-H522 lung.
For test [6], the system named is MOLT-4 leukemia.
In test [7] the test system is COLO 205 colon.
Test [8] deals with CCRF-CEM leukemia.
For test [9], the system named is ACHN renal.
Test [10] deals with OVCAR-3 ovarian.

As to `Cc1nc2cnc3cc(F)c(-c4ccc(Oc5ncccn5)cc4Cl)cc3c2n1[C@H]1CCN(C(=O)CO)C[C@@H]1F`, the GI50 in [1] was 3.03 µM; in test [2], 13.3 µM; in test [3] it was 2.02 µM; in [4] it was 0.0269 µM; in test [5], 7.17 µM; in [6] it was 0.792 µM. Besides, the GI50 was 0.0229 µM in [7], 1.69 µM in test [8], 8.19 µM in test [9] and 20 µM in test [10]. The TGI in [1] came out at 16.9 µM; in test [2] it was 54.4 µM; in test [3], 10.9 µM; in test [4], 0.411 µM; in test [5] it was 32.7 µM; in test [6], 30 µM. In addition, the TGI in [7] was 1.68 µM; in [8], over 76.8 µM; in test [9], over 100 µM; in [10] it was over 76.3 µM.

Take `CN1CCN(c2nc(NCCCCNc3ccnc4cc(Cl)ccc34)c3ccccc3n2)CC1`: the GI50 in test [1] was 1.62 µM; in test [2] it was 2.29 µM; in [3] it was 1.74 µM; in [4], 2.03 µM; in test [5], 2.82 µM; in test [6], 3.08 µM. In addition, the GI50 was 2.1 µM in [7], 2.62 µM in [8], 2.52 µM in test [9] and 5.36 µM in test [10]. For the same molecule, the TGI in test [1] worked out at 3.25 µM; in test [2] it was 6.27 µM; in [3], 3.45 µM; in [4], 3.9 µM; in test [5], 9.32 µM; in [6], 20 µM. Also, the TGI turned out to be 5.46 µM in [7], 93.9 µM in test [8], 7.32 µM in [9] and 22.6 µM in test [10].

With `CS(=O)(=O)c1ccc(-c2cnc(N)c(C(=O)Nc3ccccc3)n2)cc1`, the GI50 in [1] is 6.81 µM; in test [2], 2.39 µM; in test [3], 2.69 µM; in test [4], over 100 µM; in test [5], over 54.8 µM; in test [6], 3.4 µM. Also, the GI50 in test [7] was over 43 µM; in [8], 4 µM; in [9] it was 3.92 µM; in test [10], 15.7 µM. Besides, the TGI in test [1] is over 100 µM; in [2], over 100 µM; in test [3], over 50.1 µM; in test [4], over 100 µM; in [5], over 100 µM; in test [6], over 100 µM. The TGI in [7] was over 100 µM; in test [8] it was over 100 µM; in test [9], 29.6 µM; in test [10], over 100 µM.

In the case of `CCN1CCN(CC(=O)Nc2nc3ccc(NCc4ccc(Cl)cc4)cc3s2)CC1`, the GI50 in [1] was 1.69 µM; in test [2] it was 2.78 µM; in test [3], 1.54 µM; in [4], 2.65 µM; in [5], 2.2 µM; in test [6], 2.23 µM. In addition, the GI50 in test [7] was 1.82 µM; in [8], 2.43 µM; in test [9], 2.22 µM; in test [10], 3.16 µM. Also, the TGI in test [1] stood at 3.18 µM; in test [2] it was 17 µM; in [3] it was 3.05 µM; in [4], 6.86 µM; in test [5] it was 5.19 µM; in [6], 5.78 µM. The TGI in test [7] stood at 3.5 µM; in [8], 8.22 µM; in test [9], 5.02 µM; in [10], 16.8 µM.

In the case of `CN(C)c1ccc(-c2cc(-c3ccc(Nc4nc(Nc5ccccc5)nc(Nc5ccc(Cl)cc5)n4)cc3)nc(N)n2)cc1`, the GI50 in [1] was 5.61 µM; in test [2] it was 1.39 µM; in [3], 2.78 µM; in [4] it was 5.81 µM; in test [5], 5.8 µM; in test [6] it was 1.8 µM. Further, the GI50 in test [7] is 2.04 µM; in test [8], 3.73 µM; in [9], 5.88 µM; in test [10], 5.77 µM. The TGI in test [1] came out at 23.5 µM; in test [2], 5.02 µM; in [3], 12.9 µM; in [4] it was 37.4 µM; in test [5], 38.7 µM; in test [6], 7.87 µM. Also, the TGI is 11.6 µM in [7], 23 µM in test [8], over 100 µM in test [9] and 28.9 µM in [10].

On to `Cc1ccc(/C=C2/SC(Nc3nc(-c4nc(NC5=NC(=O)/C(=C\c6ccc(C)cc6)S5)sc4C)c(C)s3)=NC2=O)cc1`, for which the GI50 was 0.379 µM in test [1]; 0.373 µM in [2]; 0.282 µM in test [3]; 1.04 µM in test [4]; 0.857 µM in [5]; over 19.7 µM in test [6]. Further, the GI50 is 35.2 µM in [7], 2.44 µM in test [8], 0.559 µM in test [9] and 0.329 µM in [10]. In addition, the TGI in test [1] is 1.84 µM; in test [2] it was over 50 µM; in [3] it was 3.65 µM; in test [4], 20.5 µM; in [5], 25.9 µM; in test [6], over 50 µM. Also, the TGI in test [7] is over 50 µM; in test [8] it was over 50 µM; in test [9], over 29.6 µM; in test [10], 1.51 µM.
